Experimental data reported in patent US12129265B2, “Therapeutic agents and uses thereof” (Ankh Life Sciences Limited, priority 2020, dated 2024).
Values after ≈ are worked out from the molar mass of the structure shown. Where two headings read alike, the source gives them in different places.

How the values were obtained:
[1] = test system: A2780 cells; test: CellTiter-Glo in vitro cell proliferation assay, Example 8; type: cell-based, Human; settings: Homo sapiens, Example 24, A2780, Ovarian
Summary of the method: (§1)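 Test compounds span 0.0075–100 μM, delivered in DMSO one day after seeding. Cultures are kept 72 h at 37 °C in humidified air before a CellTiter-Glo luminescent readout taken after 60 min at room temperature.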

[2] = test system: A2780CP cells; test: as above; type: cell-based, Human; settings: Homo sapiens, A2780C/P, Example 24, Ovarian
Summary of the method: as §1

[3] = test system: A498 cells; test: as above; type: cell-based, Human; settings: Homo sapiens, Example 24, A498, RCC
Summary of the method: as §1

[4] = test system: AN3CA cells; test: as above; type: cell-based, Human; settings: Homo sapiens, AN3-CA, Example 24, Endometrial
Summary of the method: as §1

[5] = test system: ASPC-1 cells; test: as above; type: cell-based, Human; settings: Homo sapiens, ASPC1, Example 24, ASPC-1, Pancreatic
Summary of the method: as §1

[6] = test system: BxPC-3 cells; test: as above; type: cell-based, Human; settings: Homo sapiens, Example 24, BxPC-3, Pancreatic
Summary of the method: as §1

[7] = test system: DOHH-2 cells; test: as above; type: cell-based, Human; settings: Homo sapiens, Example 24, DOHH-2, Diffuse Large B-Cell Lymphoma
Summary of the method: as §1

[8] = test system: H1650 (EGFR mut) cells; test: as above; type: cell-based, Human; settings: Homo sapiens, NCI-H1650, Example 24, Non Small Cell Lung
Summary of the method: as §1

[9] = test system: H1975 (EGFR mut) cells; test: as above; type: cell-based, Human; settings: Homo sapiens, NCI-H1975, Example 24, Non Small Cell Lung
Summary of the method: as §1

[10] = test system: H929 cells; test: as above; type: cell-based, Human; settings: NCI-H929, Example 24, H929, human myeloma
Summary of the method: as §1

[11] = test system: HCC70 cells; test: as above; type: cell-based, Human; settings: Homo sapiens, Example 24, HCC70, Triple Negative Breast
Summary of the method: as §1

[12] = test system: HEC-1a cells; test: as above; type: cell-based, Human; settings: Homo sapiens, Example 24, Endometrial
Summary of the method: as §1

[13] = test system: JIM1 cells; test: as above; type: cell-based, Human; settings: Example 24, JIM1, human myeloma
Summary of the method: as §1

[14] = test system: KHM-1B cells; test: as above; type: cell-based, Human; settings: Example 24, human myeloma
Summary of the method: as §1

[15] = test system: KMM-1 cells; test: as above; type: cell-based, Human; settings: Example 24, KMM-1, human myeloma
Summary of the method: as §1

[16] = test system: KMS-27 cells; test: as above; type: cell-based, Human; settings: Example 24, KMS-27, human myeloma
Summary of the method: as §1

[17] = test system: KMS-34 cells; test: as above; type: cell-based, Human; settings: Example 24, KMS-34, human myeloma
Summary of the method: as §1

[18] = test system: MDA-MB-231 cells; test: as above; type: cell-based, Human; settings: Homo sapiens, Example 24, MDA-MB-231, Triple Negative Breast
Summary of the method: as §1

[19] = test system: MDA-MB-468 cells; test: as above; type: cell-based, Human; settings: Homo sapiens, Example 24, MDA-MB-468, Triple Negative Breast
Summary of the method: as §1

[20] = test system: MIA PaCa-2 cells; test: as above; type: cell-based, Human; settings: Homo sapiens, Example 24, MIA PaCa-2, Pancreatic
Summary of the method: as §1

[21] = test system: MM.1s cells; test: as above; type: cell-based, Human; settings: MM1.S, Example 24, MM.1S, human myeloma
Summary of the method: as §1

[22] = test system: MOLP-8 cells; test: as above; type: cell-based, Human; settings: Example 24, MOLP-8, human myeloma
Summary of the method: as §1

[23] = test system: OCI-LY3 cells; test: as above; type: cell-based, Human; settings: Homo sapiens, Example 24, OCI-LY3, Diffuse Large B-Cell Lymphoma
Summary of the method: as §1

[24] = test system: SiHA cells; test: as above; type: cell-based, Human; settings: Homo sapiens, Example 24, Squamous
Summary of the method: as §1

[25] = test system: Human Myeloma, Human Lymphoma, Solid Human tumor and Jeko-1 tumor cell lines; test: CellTiter-Glo in vitro cell proliferation assay, Example 8, whole panel; type: cell-based; settings: cell lines of Table 16
Protocol: In this Example, in vitro cell proliferation assays were performed using: (1) Human Myeloma tumor cell lines; (2) Human Lymphoma tumor cell lines; (3) Solid Human tumor cell lines; and (4) Parental, Lenalidomide resistant and Bortezomib resistant Jeko-1 Mantle cell Lymphoma tumor cell lines. The compounds tested were three diharmaline compounds, namely the 518B562 (or simply 562), 560, and 561 compounds. In addition, a monoharmaline product designated as 518F014 was also tested. This monoharmaline product had the following structure:
Each proliferation assay was carried out as follows. The test cells were plated in growth media using a 384-well microtiter plate at 50 μL volume. The cells were incubated for 24 hours at 37° C. in a humidified incubator. After 24 hours of incubation, the test compounds were added to the test wells in DSMO solvent, at concentrations ranging from 0.0075-100 μM. Control wells received equal volumes of DSMO, without compound. Following drugging, the cells were incubated for 72 hours at 37° C. in a humidified incubator. After this exposure, 100 μL of a 1:1 mixture of sterile water and CellTiter-Glo® reagent (Promega) was added to each well. The plates were then incubated for 60 minutes at room temperature, followed by recording the luminescence value of each well using a luminometer as a measure of cell proliferation.

IC50 ([1]; read-out: Mean): 2.58 µg/mL (≈ 4.23 µM) | IC50 ([1]; read-out: Trial A): 2.67 µg/mL (≈ 4.38 µM) | IC50 ([1]; read-out: Trial B): 2.49 µg/mL (≈ 4.09 µM) | IC50 ([2]; read-out: Mean): 3.27 µg/mL (≈ 5.37 µM) | IC50 ([2]; read-out: Trial A): 3.57 µg/mL (≈ 5.86 µM) | IC50 ([2]; read-out: Trial B): 2.96 µg/mL (≈ 4.87 µM) | IC50 ([5]; read-out: Mean): 3.47 µg/mL (≈ 5.7 µM) | IC50 ([5]; read-out: Trial A): 2.94 µg/mL (≈ 4.83 µM) | IC50 ([5]; read-out: Trial B): 3.99 µg/mL (≈ 6.56 µM) | IC50 ([6]; read-out: Mean): 3.39 µg/mL (≈ 5.56 µM) | IC50 ([6]; read-out: Trial A): 3.45 µg/mL (≈ 5.66 µM) | IC50 ([6]; read-out: Trial B): 3.33 µg/mL (≈ 5.46 µM) | IC50 ([8]; read-out: Mean): 2.58 µg/mL (≈ 4.23 µM) | IC50 ([8]; read-out: Trial A): 2.61 µg/mL (≈ 4.28 µM) | IC50 ([8]; read-out: Trial B): 2.55 µg/mL (≈ 4.19 µM) | IC50 ([9]; read-out: Mean): 2.9 µg/mL (≈ 4.76 µM) | IC50 ([9]; read-out: Trial A): 2.92 µg/mL (≈ 4.8 µM) | IC50 ([9]; read-out: Trial B): 2.87 µg/mL (≈ 4.71 µM) | IC50 ([10]; read-out: Mean): 5.96 µg/mL (≈ 9.79 µM) | IC50 ([10]; read-out: Trial A): 6.5 µg/mL (≈ 10.7 µM) | IC50 ([10]; read-out: Trial B): 5.42 µg/mL (≈ 8.9 µM) | IC50 ([18]; read-out: Mean): 3.09 µg/mL (≈ 5.08 µM) | IC50 ([18]; read-out: Trial A): 3.1 µg/mL (≈ 5.09 µM) | IC50 ([18]; read-out: Trial B): 3.08 µg/mL (≈ 5.07 µM) | IC50 ([19]; read-out: Mean): 2.79 µg/mL (≈ 4.58 µM) | IC50 ([19]; read-out: Trial A): 2.9 µg/mL (≈ 4.76 µM) | IC50 ([19]; read-out: Trial B): 2.68 µg/mL (≈ 4.41 µM) | IC50 ([20]; read-out: Mean): 3.49 µg/mL (≈ 5.74 µM) | IC50 ([20]; read-out: Trial A): 3.81 µg/mL (≈ 6.27 µM) | IC50 ([20]; read-out: Trial B): 3.17 µg/mL (≈ 5.21 µM) | IC50 ([21]; read-out: Mean): 2.57 µg/mL (≈ 4.22 µM) | IC50 ([21]; read-out: Trial A): 2.48 µg/mL (≈ 4.08 µM) | IC50 ([21]; read-out: Trial B): 2.66 µg/mL (≈ 4.36 µM) | IC50 ([23]; read-out: Mean): 5.7 µg/mL (≈ 9.37 µM) | IC50 ([23]; read-out: Trial A): 3.87 µg/mL (≈ 6.35 µM) | IC50 ([23]; read-out: Trial B): 7.54 µg/mL (≈ 12.4 µM)
Compound: COc1ccc2c3c([nH]c2c1)C(CC(CC1=NCCc2c1[nH]c1cc(OC)ccc21)c1cccc(Oc2ccccc2)c1)=NCC3 [compound 594, diharmaline 3-phenoxybenzaldehyde]
IC50 ([3]; read-out: Mean): 4.69 µg/mL (≈ 7.7 µM) | IC50 ([3]; read-out: Trial A): 4.82 µg/mL (≈ 7.91 µM) | IC50 ([3]; read-out: Trial B): 4.56 µg/mL (≈ 7.49 µM) | IC50 ([4]; read-out: Mean): 2.79 µg/mL (≈ 4.59 µM) | IC50 ([4]; read-out: Trial A): 2.79 µg/mL (≈ 4.59 µM) | IC50 ([4]; read-out: Trial B): 2.8 µg/mL (≈ 4.59 µM) | IC50 ([7]; read-out: Mean): 2.64 µg/mL (≈ 4.34 µM) | IC50 ([7]; read-out: Trial A): 2.58 µg/mL (≈ 4.23 µM) | IC50 ([7]; read-out: Trial B): 2.71 µg/mL (≈ 4.45 µM) | IC50 ([11]; read-out: Mean): 6.87 µg/mL (≈ 11.3 µM) | IC50 ([11]; read-out: Trial A): 6.15 µg/mL (≈ 10.1 µM) | IC50 ([11]; read-out: Trial B): 7.59 µg/mL (≈ 12.5 µM) | IC50 ([12]; read-out: Mean): 3.29 µg/mL (≈ 5.4 µM) | IC50 ([12]; read-out: Trial A): 3.15 µg/mL (≈ 5.17 µM) | IC50 ([12]; read-out: Trial B): 3.42 µg/mL (≈ 5.63 µM) | IC50 ([13]; read-out: Mean): 7.67 µg/mL (≈ 12.6 µM) | IC50 ([13]; read-out: Trial A): 7.41 µg/mL (≈ 12.2 µM) | IC50 ([13]; read-out: Trial B): 7.92 µg/mL (≈ 13 µM) | IC50 ([14]; read-out: Mean): 6.65 µg/mL (≈ 10.9 µM) | IC50 ([14]; read-out: Trial A): 6.48 µg/mL (≈ 10.6 µM) | IC50 ([14]; read-out: Trial B): 6.81 µg/mL (≈ 11.2 µM) | IC50 ([15]; read-out: Mean): 2.57 µg/mL (≈ 4.22 µM) | IC50 ([15]; read-out: Trial A): 2.53 µg/mL (≈ 4.15 µM) | IC50 ([15]; read-out: Trial B): 2.61 µg/mL (≈ 4.28 µM) | IC50 ([16]; read-out: Mean): 4.14 µg/mL (≈ 6.79 µM) | IC50 ([16]; read-out: Trial A): 5.54 µg/mL (≈ 9.1 µM) | IC50 ([16]; read-out: Trial B): 2.73 µg/mL (≈ 4.49 µM) | IC50 ([17]; read-out: Mean): 3.89 µg/mL (≈ 6.39 µM) | IC50 ([17]; read-out: Trial A): 4.23 µg/mL (≈ 6.94 µM) | IC50 ([17]; read-out: Trial B): 3.55 µg/mL (≈ 5.83 µM) | IC50 ([22]; read-out: Mean): 2.72 µg/mL (≈ 4.47 µM) | IC50 ([22]; read-out: Trial A): 2.73 µg/mL (≈ 4.49 µM) | IC50 ([22]; read-out: Trial B): 2.7 µg/mL (≈ 4.44 µM) | IC50 ([24]; read-out: Mean): 8.73 µg/mL (≈ 14.3 µM) | IC50 ([24]; read-out: Trial A): 8.56 µg/mL (≈ 14.1 µM) | IC50 ([24]; read-out: Trial B): 8.89 µg/mL (≈ 14.6 µM) | effectiveness in cell proliferation assays [25]: effective against a wide variety of cancer cells
